Data published in patent US10610555B2, “Method for alleviating osteoarthritis by using composite (HL-Joint 100) of achyranthes bidentata, eucommin ulmoides oliver and pomegranate extracts, which has antiinflammatory effect caused by COX2 and PGE2 inhibition, cartilage protective effect caused by MMP-2 and -9 inhibition and cartilage …” (HLSCIENCE CO., LTD., priority 2015, dated 2020).

What was measured:
Format in all cases: in vivo
[1] = tested on: rats with surgically-induced osteoarthritis (OA); test: Osteoarthritis rat model: knee joint thickness; conditions: 200 mg/kg oral (diclofenac 2 mg/kg s.c.); vs OA control group
Procedure: (§1) The osteoarthritis-improving effect of the single or mixed formula of the pomegranate concentrate powder (PCP), the eucommia bark water extract powder (EC) and the achyranthis radix water extract powder (AR) was evaluated. As the representative osteoarthritis (OA) experimental animal model, rats with osteoarthritis (OA) induced by anterior cruciate ligament transaction and partial medial meniscectomy were used [Kim et al., 2012; Kang et al., 2014a; Moon et al., 2014; Choi et al., 2015]. […] In addition, the change in articular cartilage thickness and the number of cyclooxygenase (COX)-2- and tumor necrosis factor (TNF)-α-immunopositive cells in the tibial articular cartilage was monitored [Moore et al. 2005; Kim et al., 2012; Kang et al., 2014a; Choi et al., 2015]. Through this experiment, the anti-inflammatory effect and cartilage-regenerating effect of the pomegranate concentrate powder, the eucommia bark extract and the achyranthis radix extract were evaluated.
(§2) An adequate amount of PCP, EC or AR was dissolved in sterilized distilled water and orally administered at a dosage of 5 mL/kg from 7 days after the osteoarthritis (OA) surgery once a day for 28 days. That is to say, each of the single formulas of PCP, EC and AR and the mixed formulas of PCP and EC:AR (1:1, 1:2, 1:4, 1:6, 1:8, 2:1, 4:1, 6:1 and 8:1) was orally administered at a dosage of 200 mg/kg for 28 days. […]

collagen type II mRNA = test: Osteoarthritis rat model: collagen type II mRNA expression in articular cartilage and joint capsule; conditions: OA rats, 200 mg/kg oral 28 days (diclofenac 2 mg/kg s.c.), mean ± SD
Procedure: as §1
An adequate amount of PCP, EC or AR was dissolved in sterilized distilled water and orally administered at a dosage of 5 mL/kg from 7 days after the osteoarthritis (OA) surgery once a day for 28 days. That is to say, each of the single formulas of PCP, EC and AR and the mixed formulas of PCP and EC:AR (1:1, 1:2, 1:4, 1:6, 1:8, 2:1, 4:1, 6:1 and 8:1) was orally administered at a dosage of 200 mg/kg for 28 days. For the sham surgery (sham) and osteoarthritis (OA) control groups, only sterilized distilled water was orally administered instead of the test substances. 2 mg of diclofenac sodium (Wako Pure Chemical Ind. Ltd., Osaka, Japan) dissolved in 5 mL of sterilized physiological saline was subcutaneously administered into the back skin at a dosage of 5 mL/kg (2 mg/kg) from 7 days after the osteoarthritis (OA) surgery once a day for 28 days. The administration dosage was set to 2,000 mg/60 kg×6=200 mg/kg, corresponding to 6 times the expected dosage for human (2,000 mg) in consideration of the body surface area of the rat. […]

[2] = tested on: chondrogenesis-related mRNAs (collagen type II, SOX9 and aggrecan); test: Osteoarthritis rat model: chondrogenesis-related mRNA expression; conditions: diclofenac subcutaneous
Procedure: as §1, §2

[3] = tested on: rats with surgically-induced osteoarthritis (OA); test: Osteoarthritis rat model: BrdU-immunopositive cells (cell proliferation); conditions: vs OA control group
Procedure: as §1, §2

O=C(O)Cc1ccccc1Nc1c(Cl)cccc1Cl [Diclofenac, diclofenac sodium]
knee joint thickness [1]: significant (p<0.01 or p<0.05) decrease in knee joint thickness | Collagen type II mRNA expressions, Femur AC (collagen type II mRNA): 0.69 ± 0.10^ab | Collagen type II mRNA expressions, Tibia AC (collagen type II mRNA): 0.64 ± 0.11^ij | Collagen type II mRNA expressions, SM (collagen type II mRNA; SM not defined, text speaks of joint capsule): 2.74 ± 0.95^ij | expression of collagen type II, SOX9 and aggrecan mRNAs in the femoral and tibial articular cartilage [2]: increased expression | number of BrdU-immunopositive cells in the joint capsule [3]: decrease in the number of BrdU-immunopositive cells in the joint capsule
